The record followed here is ChEMBL document CHEMBL5724562, “Toxicity screen in isolated B cell assay results for EUbOPEN Chemogenomics Library” (2024).

Non-standard residues stand in square brackets, D forms with d. Residues, ends and D or L forms follow the SMILES beside them. Arg(Me) = CNC(=N)NCCC[C@H](N)C(=O)O; d4Pal = N[C@H](Cc1ccncc1)C(=O)O; azaGly = NNC(=O)O

The subject of the data set is B cell. As to the kind of experiment: Cytotoxicity screening of chemical probes in isolated B cell assay. Data is normalized to DMSO control, the cell viability average of replicates are reported. Reduction of ATP level more than 20% indicate compromised cell health status. Conditions: human.

`CNC(=N)NCCC[C@H](NC(=O)[C@H](CC(C)C)NC(=O)NNC(=O)[C@H](Cc1ccccc1)NC(=O)[C@H](CO)NC(=O)[C@H](CC(N)=O)NC(=O)[C@@H](Cc1ccncc1)NC(=O)[C@H](N)Cc1ccc(O)cc1)C(=O)N[C@@H](Cc1ccccc1)C(N)=O` [KISS1-305] (H-[dY][d4Pal]NSF[azaGly]L[Arg(Me)]F-NH2): for the setting “1 µM”, the “Cell Viability” value is recorded as 101.037%.

For the compound `CCCOc1ccc([C@H]2[C@H](C(=O)O)[C@@H](c3ccc4c(c3)OCO4)CN2CC(=O)Nc2c(CC)cccc2CC)cc1` [A-192621], where the note is “0.1 µM”, the “Cell Viability” value came to 97.3784%.

As to `CCC(=O)Nc1cc(Nc2cc(NC3CC3)n3ncc(C#N)c3n2)ccc1C`, the “Cell Viability” value (1 µM) is 88.1167%.

For `NS(=O)(=O)c1cc(NC(=O)Cc2ccccc2)ccc1Oc1cccc(Cl)c1` [BAY-1797], the “Cell Viability” value (1 µM) was found to be 95.6935%.

As for `COc1cc(-c2cn(C)c(=O)c3cnccc23)c(OC)cc1CN(C)C`, the “Cell Viability” value (1 µM) is listed as 95.7323%.

On to `COc1cccc(CNC(=O)c2nc3scc(COCc4ccc(C(=O)O)cc4)c3c(=O)[nH]2)c1` [T-26c], for which, where the note is “0.1 µM”, the “Cell Viability” value is 102.037%.

`COc1ccncc1C(=O)NC(=O)Nc1ccc(-c2ccccc2)c(C(F)(F)F)c1`: the “Cell Viability” value (1 µM) is listed as 100.618%.

For `COc1ccc2cc(OCC3(C(=O)O)CN(C(=O)c4ccc(F)cc4)C3)ccc2c1` [PF-04418948], where the note is “0.1 µM”, the “Cell Viability” value is on record as 98.5812%.

Consider `COc1ccccc1C(=O)Nc1cc2c(cc1N1CCCC1)n(C)c(=O)n2C`, for which the “Cell Viability” value (1 µM) came to 98.47%.

Consider `CCCCN(CCCC)C(=O)CN1C[C@@H](c2cc(OC)c3c(c2)OCO3)[C@H](C(=O)O)[C@H]1CC(C)(C)CCC.Cl`, for which the “Cell Viability” value (1 µM) is given as 89.8179%.
